Reference: US20040024033A1 (priority 1998, published 2004)
Read-outs that look alike come from different tables or passages of the source.

How the values were obtained:
[1] = Determination of the single i.v. dose MTD in nude mice; type: in vivo, female BALB/c nude mice; settings: mean ± SD
Method: For the MTD determination, female BALB/c nude mice or BALB/c mice (obtained from Novartis Animal Farm, Sisseln, Switzerland) are treated once intravenously with epothilone B (n=3 per dose group). The dosage is increased (2, 4, 6, 8, 10 and 12 mg/kg) and the mice are observed for the presentation of overt toxic effects for 10 days after drug treatment.
Epothilone B is given as a single i.v. bolus dose at 2, 4, 6, 8, 10 or 12 mg/kg. Survival and body weights of the mice are monitored daily. Changes (A) in body weights are determined comparing the last measured body weight to that before treatment.

[2] = test system: A549 non-small cell lung tumors; type: in vivo, outbred athymic (nu/nu) mice; settings: for % T/C / Dead/Total: extended observation, day 48
Method: Materials and methods pertaining to the human tumor xenograft model are as previously described.
Measurements are taken for an additional 2 weeks after completion of the regular 3 weeks experiments, to evaluate reversibility of drug-induced body weight loss, and sustainability of antitumor effects.
Treatments are started on day 13 post implantation (10 million cells/animal). Epothilone B is administered i.v. once weekly for 3 weeks (days 13, 20, and 27) at doses of 1, 2, 3, and 3.5 mg/kg. […] Final data are recorded on day 34. A single asterisk (*) indicates p<0.05 using a one-tailed Student's t-Test, and a double asterisk (**) indicates p<0.05 using a Dunnett's or Dunn's test.
Measurements for the experiment described in Table 1 are extended by additional two weeks. Final data are recorded on day 48. A single asterisk (*) indicates p<0.05 using a one-tailed Student's t-Test, and a double asterisk (**) indicates p<0.05 using a Dunneff's or Dunn's test.

[3] = test system: human estrogen-dependent ZR-75-1 breast tumor; experiment: Antitumor effect against s.c. transplanted ZR-75-1 tumors; type: in vivo, female BALB/c nude mice
Method: Female or male BALB/c nu/nu (nude) mice are kept under sterile conditions (10 to 12 mice per Type III cage) with free access to food and water. Mice weigh between 20 and 25 grams at the time of tumor implantation. Tumors are established by subcutaneous injection of cells (minimum 2×10^6 cells in 100 μl PBS or medium) in carrier mice (4-8 mice per cell line). The resulting tumors are serially passaged for a minimum of three consecutive transplantations prior to start of treatment. Tumor fragments (approx. 25 mg) are implanted s.c. into the left flank of animals with a 13-gauge trocar needle while the mice are exposed to Forene (Abbott, Switzerland) anesthesia.
Tumor growth and body weights are monitored once or twice weekly. All treatments are administered intravenously (i.v.) and are initiated when a mean tumor volume of approximately 100 to 250 mm^3 is attained, depending upon the tumor type. Tumor volumes are determined using the formula […] (see Cancer Chemother. Pharmacol. 24:148-154, [1989]). Treatments with epothilone B vary the dose and the frequency of administration. Comparator agents are administered according to previously determined optimal treatment regimens. In addition to presenting changes in tumor volumes over the course of treatment, antitumor activity is expressed as T/C% (mean increase of tumor volumes of treated animals divided by the mean increase of tumor volumes of control animals multiplied by 100). Tumor regression (%) represents the smallest mean tumor volume compared to the mean tumor volume at the start of treatment, according to the formula Regression (%)=(1−Vend/Vstart)×100 (Vend=final mean tumor volume, Vstart=mean tumor volume at the start of treatment. Any animals in which the tumor has reached a size exceeding approximately 1.5 to 2.5 cm^3 are sacrificed. Details can be found below.
Tumor fragments of approximately 25 mg are implanted into the left flank of each female nude mouse (n=6 per group); a subcutaneous estrogen pellet is placed in the opposite flank. Treatments are started on day 19 after tumor transplantation. epothilone B is administered at 1, 2 or 4 mg/kg, i.v., either once per week (days 19, 26 and 33) or every second week (days 19 and 33). Data presented are from animals surviving to day 47, the last day of controls. Antitumor activity is expressed as T/C% (mean increase of tumor volumes of treated animals divided by the mean increase of tumor volumes of control animals multiplied by 100). Tumor regression (%) represents the final mean tumor volume compared to the mean tumor volume at the start of treatment. Changes (A) in tumor volume represent the tumor volume on the last treatment day minus the tumor volume on the first treatment day.

[4] = 1 mg/kg i.v. once weekly for 3 weeks
[5] = 2 mg/kg i.v. once weekly for 3 weeks
[6] = 3 mg/kg i.v. once weekly for 3 weeks
[7] = 3.5 mg/kg i.v. once weekly for 3 weeks
[8] = 1 mg/kg, i.v. every 7 days, day 47
[9] = 2 mg/kg, i.v. every 7 days, day 47
[10] = 4 mg/kg, i.v. every 7 days, day 47
[11] = 4 mg/kg, i.v. every 14 days, day 47

Structure (SMILES): C/C(=C\c1csc(C)n1)[C@@H]1C[C@@H]2O[C@]2(C)CCC[C@H](C)[C@H](O)[C@@H](C)C(=O)C(C)(C)[C@@H](O)CC(=O)O1 [epothilone B]
- Body Weight Δ ([1]; 2 mg/kg single i.v. bolus): 1.0 ± 0.5 g
- Body Weight Δ ([1]; 4 mg/kg single i.v. bolus): -0.4 ± 0.6 g
- Body Weight Δ ([1]; 6 mg/kg single i.v. bolus): -1.0 ± 0.5 g
- Body Weight Δ ([1]; 8 mg/kg single i.v. bolus): -3.8 ± 2.7 g
- Body Weight Δ ([1]; 10 mg/kg single i.v. bolus): -5.6 ± 3.3 g
- Body Weight Δ ([1]; 12 mg/kg single i.v. bolus): -5.1 ± 0.6 g
- % T/C [2, 4]: 72%
- Dead/Total [2, 4]: 0/8
- % T/C [2, 5]: 49%
- Dead/Total [2, 5]: 0/8
- % T/C [2, 6]: 16%
- Dead/Total [2, 6]: 0/8
- % T/C [2, 7]: 12%
- Dead/Total [2, 7]: 0/8
- body weight loss ([2]; 3.5 and 3 mg/kg i.v. once weekly, reversible): approximately 15%
- Regression [3, 8]: none
- T/C (%) [3, 8]: 86%
- Δ Body Weight [3, 8]: 0.3 g
- Regression [3, 9]: none
- T/C (%) [3, 9]: 40%
- Δ Body Weight [3, 9]: -3.5 g
- T/C (%) [3, 10]: 1%
- Δ Body Weight [3, 10]: -1.2 g
- Regression ([3]; 4 mg/kg, i.v. every 7 days, transient): −8%
- Regression [3, 11]: none
- T/C (%) [3, 11]: 46%
- Δ Body Weight [3, 11]: -1.6 g
